From patent EP4603105A1, “PHARMACEUTICAL COMPOSITION CONTAINING CYCLIC COMPOUND HAVING SELECTIVE KRAS INHIBITORY EFFECT AGAINST HRAS AND NRAS” (CHUGAI SEIYAKU KABUSHIKI KAISHA, priority 2022, dated 2024) come the findings set out here.

The structures appear in SMILES notation.

Assay [1] deals with human lung cancer strain NCI-H441. The assay is described as follows: NCI-H441 cell proliferation inhibitory activity (CellTiter-Glo, 4 days). The assay is classed as cell-based. The conditions noted are these: NCI-H441 cells, 4 days, read-out: NCl-H441 IC50. An outline of the steps:
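Step one: dispense the test compound in serial DMSO dilutions. Step three: add the reagent and measure […].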
For orientation: ATP-based viability assays read luminescence as a measure of living cells.

For assay [2], the target named is HRAS wild-type protein (Homo sapiens, UniProt P01112). As to the kind of experiment: Binding to HRAS by surface plasmon resonance (SPR), KD and KD ratio to KRAS. To be noted: ratio of KD for HRAS wild-type protein to KD for KRAS. The essentials:
(§1)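 Biotinylated GDP-bound RAS was captured at about 100–300 RU. Running buffer: HBS pH 7.4, 10 mM MgCl2, 10 µM GDP, 1 mM DTT, 0.01% Tween 20, 4% DMSO.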
(In general: SPR reads the build-up and loss of mass on a sensor chip optically.)

Assay [3] has as its target GDP-bound KRAS wild-type protein (Homo sapiens, UniProt P01116). The assay is described as follows: Binding to KRAS by surface plasmon resonance (SPR), dissociation constant KD. The conditions noted are these: 1:1 binding model. The essentials:
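SPR, 30°C: Avi-biotin RAS·GDP captured via Biotin CAPture (~100–300 RU); running buffer HBS pH 7.4, 1 mM DTT, 10 mM MgCl2, 0.01% Tween 20, 10 µM GDP, 4% DMSO. Single-cycle kinetics, 100 µL/min, 75 s injections; 1:1 model → KD.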

For assay [4], the target named is GDP-bound NRAS wild-type protein (Homo sapiens, UniProt P01111). As to the kind of experiment: Binding to NRAS by surface plasmon resonance (SPR), KD and KD ratio to KRAS. To be noted: ratio of KD for GDP-bound NRAS wild-type protein to KD for KRAS. An outline of the steps: as §1
Sequence of GDP-bound NRAS wild-type protein (P01111 whole entry): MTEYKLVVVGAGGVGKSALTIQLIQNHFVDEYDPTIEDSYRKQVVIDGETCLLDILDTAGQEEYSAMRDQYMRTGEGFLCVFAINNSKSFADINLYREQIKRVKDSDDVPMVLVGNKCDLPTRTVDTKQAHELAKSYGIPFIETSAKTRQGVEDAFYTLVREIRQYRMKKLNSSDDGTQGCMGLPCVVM

Sequence of HRAS wild-type protein (P01112 whole entry): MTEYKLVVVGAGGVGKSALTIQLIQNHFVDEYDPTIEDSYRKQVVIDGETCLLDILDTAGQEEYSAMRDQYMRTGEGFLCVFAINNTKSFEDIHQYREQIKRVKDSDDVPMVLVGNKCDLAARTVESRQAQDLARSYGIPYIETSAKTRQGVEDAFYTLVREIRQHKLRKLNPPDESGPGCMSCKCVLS
Sequence of GDP-bound KRAS wild-type protein (P01116 1-188 isoform P01116-2): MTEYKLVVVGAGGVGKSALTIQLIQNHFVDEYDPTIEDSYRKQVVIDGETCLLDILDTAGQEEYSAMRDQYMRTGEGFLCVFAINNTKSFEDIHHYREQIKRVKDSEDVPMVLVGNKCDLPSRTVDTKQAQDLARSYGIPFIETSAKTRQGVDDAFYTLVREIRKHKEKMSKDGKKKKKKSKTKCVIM

Consider `CCC[C@H]1C(=O)N[C@@H]([C@@H](C)CC)C(=O)N2CCC[C@H]2C(=O)N(C)[C@H]2C/C=C\CCN(C2=O)[C@@H](Cc2ccc(C)cc2)C(=O)N(C)CC(=O)N[C@@H](CCc2ccc(C(F)(F)F)c(OC)c2)C(=O)N2C[C@@H](C)C[C@H]2C(=O)N(C)C2(CCC2)C(=O)N(C)[C@@H](C2CCCC2)C(=O)N(C)[C@H](C(=O)N(C)C)CC(=O)N1C` [PP2368], for which, in assay [1], the 50% inhibitory concentration (IC50) – broadly, the concentration that inhibits the measured activity by half – turned out to be 4.1 nM. The “HRAS /KRAS” value in assay [2] is “A (a compound having 10 or more and less than 20 is denoted as A)”. Also, in assay [3], binding was characterised by a dissociation constant (Kd) of 0.045 nM. In addition, the “NRAS /KRAS” value in assay [4] was “A (a compound having 10 or more and less than 20 is denoted as A)”.
For `CCCOC[C@H]1C(=O)N[C@@H]([C@@H](C)CC)C(=O)N2CCC[C@H]2C(=O)N(C)[C@H]2C/C=C\CCN(C2=O)[C@@H](Cc2ccc(C)cc2)C(=O)N(C)CC(=O)N[C@@H](CCc2ccc(C(F)(F)F)c(OC)c2)C(=O)N2C[C@@H](C)C[C@H]2C(=O)N(C)C2(CCC2)C(=O)N(C)[C@@H](C2CCCC2)C(=O)N(C)[C@H](C(=O)N(C)C)CC(=O)N1C` [PP2369], the IC50 in assay [1] stood at 4.5 nM. Besides, in assay [2], the “HRAS /KRAS” value is “B (a compound having 3 or more and less than 10 is denoted as B)”. In addition, in assay [3], the Kd (usually the free concentration of one partner at which half of the binding sites on the other are occupied at equilibrium, for simple one-to-one binding) was 0.062 nM. Further, in assay [4], the “NRAS /KRAS” value is “A (a compound having 10 or more and less than 20 is denoted as A)”.
As for `CCC[C@H]1C(=O)N[C@@H]([C@@H](C)CC)C(=O)N(C)CC(=O)N(C)[C@H]2C/C=C\CCN(C2=O)[C@@H](CC2CCCCC2)C(=O)N(C)CC(=O)N[C@@H](CCc2ccc(C(F)(F)F)c(OC)c2)C(=O)N2C[C@@H](C)C[C@H]2C(=O)N(C)C2(CCC2)C(=O)N(C)[C@@H](C2CCCC2)C(=O)N(C)[C@H](C(=O)N(C)C)CC(=O)N1C` [PP2370], the IC50 in assay [1] was found to be 25.7 nM. Also, the “HRAS /KRAS” value in assay [2] is “B (a compound having 3 or more and less than 10 is denoted as B)”. In assay [3], this molecule gave a Kd of 0.54 nM. For the same molecule, the “NRAS /KRAS” value in assay [4] is “B (a compound having 3 or more and less than 10 is denoted as B)”.
In the case of `CCOC[C@H]1C(=O)N[C@@H]([C@@H](C)CC)C(=O)N(C)CC(=O)N(C)[C@H]2C/C=C\CCN(C2=O)[C@@H](CC2CCCCC2)C(=O)N(C)CC(=O)N[C@@H](CCc2ccc(C(F)(F)F)c(OC)c2)C(=O)N2C[C@@H](C)C[C@H]2C(=O)N(C)C2(CCC2)C(=O)N(C)[C@@H](C2CCCC2)C(=O)N(C)[C@H](C(=O)N(C)C)CC(=O)N1C` [PP2371], the IC50 in assay [1] was found to be 41.9 nM. Further, the “HRAS /KRAS” value in assay [2] is “B (a compound having 3 or more and less than 10 is denoted as B)”. Moreover, the equilibrium dissociation constant (Kd) in assay [3] is 0.64 nM. The “NRAS /KRAS” value in assay [4] is “A (a compound having 10 or more and less than 20 is denoted as A)”.
On to `CCC[C@H]1C(=O)N[C@@H]([C@@H](C)CC)C(=O)N(C2CC2)CC(=O)N(C)[C@H]2C/C=C\CCN(C2=O)[C@@H](CC2CCCCC2)C(=O)N(C)CC(=O)N[C@@H](CCc2ccc(C(F)(F)F)c(OC)c2)C(=O)N2C[C@@H](C)C[C@H]2C(=O)N(C)C2(CCC2)C(=O)N(C)[C@@H](C2CCCC2)C(=O)N(C)[C@H](C(=O)N(C)C)CC(=O)N1C` [PP2372], for which, in assay [1], the IC50 amounted to 3.3 nM. For the same molecule, in assay [2], the “HRAS /KRAS” value is “B (a compound having 3 or more and less than 10 is denoted as B)”. The Kd in assay [3] was 0.79 nM. Besides, the “NRAS /KRAS” value in assay [4] is “A (a compound having 10 or more and less than 20 is denoted as A)”.
On to `CCC[C@H]1C(=O)N[C@@H]([C@@H](C)CC)C(=O)N2CCC[C@H]2C(=O)N(C)[C@H]2C/C=C\CCN(C2=O)[C@@H](CC2CCCCC2)C(=O)N(C)CC(=O)N[C@@H](CCc2ccc(C(F)(F)F)c(OC)c2)C(=O)N2C[C@@H](C)C[C@H]2C(=O)N(C)C2(CCC2)C(=O)N(C)[C@@H](C2CCCC2)C(=O)N(C)[C@H](C(=O)N(C)C)CC(=O)N1C` [PP2374], for which, in assay [1], the half-maximal inhibitory concentration (IC50) turned out to be 67.2 nM. In addition, the “HRAS /KRAS” value in assay [2] was “A (a compound having 10 or more and less than 20 is denoted as A)”. Besides, in assay [3], the Kd worked out at 0.85 nM. Besides, in assay [4], the “NRAS /KRAS” value was “A (a compound having 10 or more and less than 20 is denoted as A)”.
